Test results reported in patent publication US10154970B2, “Methods for immunomodulation of cancer and infectious disease therapy” (The Regents of the University of California, priority 2014, dated 2018).

Tests used:
IFN-γ [1] = test: IFN-γ mRNA expression in Jurkat cells by qRT-PCR, normalized with GAPDH; format: cell-based, human
Protocol: FIG. 1. Interferon gamma (IFN-γ) and interleukin (IL)-2 expression in human Jurkat cells following exposure to TRIP in vitro. Jurkat cells (2×10^6) were treated with different concentrations of TRIP as indicated for 24 hours. (A) IFN-γ and (B) IL-2 mRNA expression levels were detected by quantitative real-time polymerase chain reaction (qRT-PCR) and normalized with the expression of GAPDH. *p<0.05, **p<0.01, ***p<0.001.
FIG. 2. Effect of tamoxifen on TRIP-induced expression of IFN-γ in vitro. Jurkat cells (2×10^6) were treated with TRIP (2.5 μM) and/or tamoxifen (2.5 μM) for 24 hours. The expression levels of IFN-γ were analyzed by qRT-PCR and normalized with GAPDH. **p<0.01, ***p<0.005.
FIG. 3. Effects of TRIP alone and in combination with trifluoperazine (TFP) or LY294002 (LY) on IFN-γ and IL-2 in human Jurkat cells in vitro. Jurkat cells (2×10^6) were pretreated with different concentrations of (A, B) TFP (0, 0.1, 1.0, 5.0, and 10.0 μM) and (C, D) LY294002 (0, 1, 5, 10, and 25 μM) for 1 hour, then incubated with medium containing 2.5 μM of TRIP for 24 hours. (A, C) IFN-γ and (B, D) IL-2 mRNA expression levels were detected by qRT-PCR and normalized with the expression of GAPDH. *p<0.05, **p<0.01, ***p<0.001.
FIG. 4. Effects of calmodulin, PI3K and MAPK inhibition on TRIP-induced expression of IFN-γ and IL-2 in human Jurkat cells in vitro. Jurkat cells (2×10^6) were pretreated with PD98059 (50 μM), TFP (10 μM) and LY294002 (25 μM) for 1 hour, then incubated with medium containing 2.5 μM of TRIP for 24 hours. (A) IFN-γ and (B) IL-2 mRNA expression levels were detected by qRT-PCR and normalized with the expression of GAPDH. **p<0.01, ***p<0.001, ****p<0.0001.
The potential immune regulating effects of TRIP and the possible mechanism(s) involved were determined with in vitro experiments examining the expression of T cell activating cytokines in human acute T cell leukemia Jurkat cells. The expression of IFN-γ and IL-2 RNA following exposure to increasing concentrations of TRIP (i.e., ospemifene) were first examined, followed by the effects of combining tamoxifen with TRIP on the expression of these cytokines. Different inhibitors of key T cell activation pathways—trifluoperazine (TFP), an inhibitor of calmodulin, LY294002, an inhibitor of PI3K, and PD98059, a MAPK inhibitor—in combination with TRIP were assessed for their effects on TRIP-induced expression of IFN-γ and IL-2 in Jurkat cells.
Jurkat cells (2.0×10^6) were treated with different concentrations of TRIP as indicated on the x-axis for 24 hours. (A) IFN-γ and (B) IL-2 mRNA expression levels were detected by quantitative real-time polymerase chain reaction (qRT-PCR) and normalized with the expression of GAPDH. *p<0.05, **p<0.01, ***p<0.001.
The expression levels of IFN-γ were analyzed by qRT-PCR and normalized with GAPDH. **p<0.01, ***p<0.001.
T cell activation requires multiple signals including PI3K, MAPK and calcium signaling pathways, and in order to identify the potential mechanism through which TRIP affects immune activation, Jurkat cells (2.0×10^6) were pretreated with different concentrations of TFP (0, 0.1, 1.0, 5.0 and 10.0 μM) (A, B) or LY294002 (0, 1, 5, 10 and 25 μM) (C, D) for one hour, then incubated with medium containing 2.5 μM TRIP for 24 hours. IFN-γ and IL-2 expression levels were detected by qRT-PCR and normalized with the expression of GAPDH. *p<0.05, **p<0.01, ***p<0.001.
Jurkat cells (2×10^6) were pretreated with PD98059 (50 μM), TFP (10 μM) or LY294002 (25 μM) for one hour, then incubated with medium containing 2.5 μM TRIP for 24 hours. (A) IFN-γ and (B) IL-2 mRNA expression levels were detected by qRT-PCR and normalized with expression of GAPDH. **p<0.01, ***p<0.001, ****p<0.0001.
The effects on T cell activation of different functional group substitutions on the TRIP chemical structure (Formula Ia) were examined by measuring the expression of IFN-γ and IL-2 RNA in human acute T cell leukemia Jurkat cells in vitro. […]

regulatory T cell (Treg) = settings: chronic daily TRIP 50 mg/kg + two cycles of PV
Protocol: A total of 55 mixed-sex hMUC1.Tg C57BL/6 mice, starting at approximately five weeks of age, were treated with urethane as described above. Approximately six weeks after the last dose of urethane, mice were randomized into four treatment groups of approximately equal average weight: Control (n=22); TRIP (i.e., ospemifene) 50 mg/kg (n=16); tecemotide (L-BLP25) peptide vaccine (PV) (n=6); and TRIP+PV (n=11). At this time (Week 21), mice assigned to the […] began treatment with the first of two cycles consisting of eight weekly 10 μg doses each, with approximately four weeks between cycles. Cycle 1 was administered during Weeks 21-28, and Cycle 2 from Weeks 32-39. The PV was prepared and administered as described above. Mice in the TRIP groups began daily oral treatment in Week 31, which continued through the end of the study (approximately eight weeks of dosing). TRIP was prepared and administered as described above. Mice not assigned to TRIP treatment received daily oral doses of diluent. At the conclusion of the study, 48 h after the final dose of PV and 24 h after the last dose of TRIP, all mice were euthanized for the collection of serum and spleens, which were processed as described above for multiplex serum cytokine, Treg, and CTL analyses.

IFN-γ [2] = test: Example 6: serum IFN-γ on Day 28 in allograft-bearing mice; format: in vivo, C57BL/6 wild type mice; settings: Day 28, 48 hours after final PV dose; TRIP 100 mg/kg
Protocol: Each of four weekly 100-μg injections of peptide vaccine (PV) was preceded by three daily oral doses of TRIP (100 mg/kg). All mice were implanted with breast cancer allografts on Day 0, and serum was collected on Day 28 following four weeks of treatment. […] For all treatment groups, n=8.
A total of 32 female C57BL/6 wild type mice were assigned to four treatment groups (n=8): Control; TRIP (i.e., ospemifene) 100 mg/kg; tecemotide (L-BLP25) peptide vaccine (PV) (100 μg); and TRIP 100 mg/kg combined with 100 μg PV. On Day 0 of the study, all 32 mice were subcutaneously implanted with 1.0×10^6 mouse breast cancer cells expressing the PV target antigen (BP25). Two days later, mice began a three-day regimen of once daily 100 mg/kg TRIP administered orally. On Day 5, mice were administered their first weekly 100 μg dose of PV by subcutaneous injection. This treatment schedule was repeated for a total of four weeks. […] All mice were euthanized on Day 28 for the collection of serum and spleens to assess immune response to treatment. Immune response was assessed by performing IFN-γ ELISpot.

**Q.** How did the “expression of IFN-γ compared to control, TRIP+tamoxifen” value (IFN-γ [1]; Jurkat cells, TRIP 2.5 μM plus tamoxifen 2.5 μM, 24 hours (FIG. 2)) turn out when OCCOc1ccc(/C(=C(/CCCl)c2ccccc2)c2ccccc2)cc1 [TRIP, Z-2-[4-(4-chloro-1,2-diphenyl-but-1-enyl)-phenoxy]ethanol] was run?
**A.** The value was “significantly increased”.

**Q.** What about the “IFN-γ RNA expression compared to control” value (IFN-γ [1]; Jurkat cells, different concentrations of TRIP, 24 hours, dose-dependent (FIG. 1A)) of the same compound?
**A.** Its value is “significantly induced”.

**Q.** And the “expression of IFN-γ compared to control” value (IFN-γ [1]; Jurkat cells, single agent 2.5 μM, 24 hours (FIG. 2))?
**A.** Its value is “significantly increased”.

**Q.** And the “IFN-γ Expression” value (IFN-γ [1]; mRNA in Jurkat cells in vitro, relative to control sample without TRIP compound)?
**A.** Its value is “+++ (strong increase)”.

**Q.** What about the “PV-induced immune response as assessed by Treg expression” value (regulatory T cell (Treg)) of the same compound?
**A.** Its value is “did not significantly affect”.

**Q.** And the “serum IFN-γ compared to the control and TRIP alone treatment groups, TRIP + PV” value (IFN-γ [2])?
**A.** The value was “significantly increased”.
